Data reported in patent US12454675B2, “Method of increasing protein yield in mammalian cells in serum-free culture medium” (AGENCY FOR SCIENCE, TECHNOLOGY AND RESEARCH, priority 2016, dated 2025).

How the values were obtained:
[1] = Maltose and glucose profiles in cell-free conditioned media; assay type: physicochemical; details: cell-free conditioned media of Days 2, 4, 6, 8; 3 g/l maltose; 37° C., 3 days
Protocol: In (A) SH87 cell were routinely maintained in glucose-only PFCDM was sub-cultivated into PFCDM with 4 g/l glucose, or 4 g/l glucose+3 g/l maltose. On Days 2, 4, 6 and 8, cell-free conditioned medium (CM) were harvested from both cultures. Viable cell densities (lined marker) and culture viabilities (marker only) were also monitored. In (B) CM from the maltose supplemented culture were incubated for a further 3 days at 37° C. Samples were harvested daily from these CM, starting from the day of harvest, to determine glucose and maltose concentrations. In (C) CM harvested from the glucose culture were spiked with maltose to a final concentration of 3 g/l prior to further incubation at 37° C. Samples from these CM were harvested daily for a further three (3) days to determine glucose and maltose concentrations. The averages and standard deviations from two (2) replicate shake flasks were plotted.
To further validate that the maltose was indeed utilized by the cells and not hydrolyzed in the culture media, cell-free conditioned media (CM) from Days 2, 4, 6 and 8 were obtained from a 3 g/l maltose supplemented culture as well as a 4 g/l glucose culture. 3 g/l maltose was spiked into the CM from the glucose culture, and both sets of CM were monitored over 3 days for changes in glucose and maltose concentrations at 37° C. (FIG. 4). […]

[2] = system: HEK293 cells; assay: Disaccharides to support growth of HEK293 cells in PFCDM; assay type: cell-based; details: 10 g/l sugar, seeding 1.0×10^6 cells/ml, 22 days
Excerpt: In (A) CHO-K1 cells were cultivated in a serum-free protein-free cell culture medium, HyQ PF-CHO, with 3.6 g/l of different sugars (maltose, sucrose, lactose, trehalose or glucose) as carbohydrate source. The viable cell densities (lined markers) and culture viabilities (marker only) of these cultures at the beginning and end of each passage over a period of 74 days were plotted. Cultures with sucrose, lactose or trehalose were terminated on Day 31 due to the decreased culture viabilities and reduced viable cell densities. The experiment was repeated with a seeding cell density of 1.0×10^6 cells/ml to obtain similar results. In (B) CHO-DG44 cells were cultivated with a seeding cell density of 1.0×10^6 cells/ml in a serum-free protein-free cell culture medium, HyQ PF-CHO, with 10 g/l of different sugars (maltose, sucrose, lactose, trehalose or glucose) as carbohydrate source. The viable cell densities (lined markers) and cell viabilities (marker only) of these cultures at the beginning and end of each passage over a period of 22 days were plotted. In (C) HEK293 cells were cultivated with a seeding cell density of 1.0×10^6 cells/ml in a protein-free chemically defined cell culture medium, PFCDM, with 10 g/l of different sugars (maltose, sucrose, lactose, trehalose or glucose) as carbohydrate source. The viable cell densities (lined markers) and cell viabilities (marker only) of these cultures at the beginning and end of each passage over a period of 22 days were plotted. Cultures with sucrose, lactose or trehalose were terminated on Day 14 due to the decreased culture viabilities and reduced viable cell densities.

[3] = system: CHO-K1 cells; assay: CHO-K1 cells in PFCDM with increasing concentration of maltose; assay type: cell-based, Chinese Hamster; details: maltose-adapted CHO-K1, PFCDM, maltose 10 g/l to 40 g/l
Excerpt: CHO-K1 cells adapted to PFCDM with 10 g/L of maltose was cultivated in PFCDM with 10, 20, 30 and 40 g/L maltose in batch shake flask cultures. The cultures were monitored till culture viabilities were lower than 50%, to obtain their (A) Viable cell densities (lined marker) and culture viabilities (marker only), and (B) Osmolality, (C) Glucose, (D) Lactate, (E) Glutamine and (F) Ammonium profiles. […] Even with the higher maltose concentration, lactate concentration was kept at a low level till viability started to drop on Day 6.
Examining glutamine consumption, while this was slower in the maltose culture compared to the glucose culture (FIG. 2D), it was likely due to the slower growth of the maltose culture. […] This hypothesis is supported by the ammonium production profiles: while the specific ammonium production rate was initially similar for both cultures, that for the glucose culture slowed considerably from Day 2 (FIG. 2G) to attain a final ammonium concentration of 0.14 g/l (FIG. 2E), whereas the specific ammonium production rate of the maltose culture continued at a similar rate till Day 5 to attain a higher final ammonium concentration of 0.20 g/1. […]

[4] = system: SH87 cells; assay: Specific maltose consumption rate, Monod model; assay type: cell-based, Chinese Hamster; details: non-linear regression
Protocol: Specific substrate consumption rate (qs) between culture times t1 and t2 was determined by plotting substrate concentration (S) vs IVCD according to Equation 4. −qs=(St2−St1)/IVCD St2=−qs×IVCD+St1 Equation 4
Specific substrate consumption rate (qs) was fitted into a Monod model according to Equation 5, where qs_max is the maximum specific substrate consumption rate, S is the substrate concentration, and Ks is the affinity constant. qs=(qs_max×S)/(Ks+S) Equation 5
To characterize the maltose metabolism in the maltose supplemented cultures, the specific maltose consumption rates were obtained from plots of maltose concentrations against cumulative integral viable cell densities (IVCD) according to Equation 4. […] Comparing with published specific monosaccharide consumption rates using 3.6 g/l of monosaccharides (Altamirano et al., 2000), the maximum specific maltose consumption rate determined here is similar to the specific consumption rates of fructose (0.21 ng/cell/day) and galactose (0.21 ng/cell/day) while being lower than the measured specific consumption rates of glucose (0.76 ng/cell/day) and mannose (0.88 ng/cell/day). […] While the present inventors noted that these parameters can be more accurately determined in continuous cultures, it may be practically challenging at low maltose concentrations since growth rates will be low.

maltose hydrolysis in conditioned culture media [1]: not occurring spontaneously
SMILES: OC[C@H]1O[C@H](O[C@H]2[C@H](O)[C@@H](O)[C@H](O)O[C@@H]2CO)[C@H](O)[C@@H](O)[C@@H]1O [maltose]
proliferation in serum-free culture medium with the sugar as sugar source [2]: can proliferate
proliferation with increased concentrations of maltose [3]: proliferated faster
affinity constant (Ks) [4]: 7.03 g/L
maximum specific maltose consumption rate (qs_max) [4]: 0.257 ng/cell/day
